Key:
KASII = details: in comparison with cerulenin; cited from earlier work
E. coli strain M15/pREP4 = assay: Effect of expression of KAS II mutants on the fatty acid composition of E. coli (GC FAME); assay type: cell-based; details: for accumulation of 18:0: IPTG induced 2 hours; for long chain fatty acid accumulation due to L111A and F133A: in combination mutants
Procedure: The mutant KAS II genes cloned behind an IPTG inducible T5 promoter (pQE30 vector, Qiagen) were transformed into E. coli strain M15/pREP4. E. coli M15/pREP4 strains containing no vector (−Vec), vector without insert (+Vec), or vectors expression wild-type KAS I or II or single or multiple engineered forms of KASII were grown to mid-log phase in LB media at 30° C. Expression was induced for 2 hours with IPTG (0.75 mM), cells were harvested, lyophilzed, and the lipids were extracted into toluene and derivatized by sodium methoxide and analyzed for fatty acid content by GC FAME analysis as described in Dehesh, et al. (1998) Plant J. 15:383-390.

[1] = biological target: fatty acid synthase from Saccharomyces cerevisiae (Saccharomyces cerevisiae, UniProt P19097); details: among chain length analogues maintaining the double bond positions; cited from earlier work
Chain of fatty acid synthase from Saccharomyces cerevisiae (P19097 whole entry): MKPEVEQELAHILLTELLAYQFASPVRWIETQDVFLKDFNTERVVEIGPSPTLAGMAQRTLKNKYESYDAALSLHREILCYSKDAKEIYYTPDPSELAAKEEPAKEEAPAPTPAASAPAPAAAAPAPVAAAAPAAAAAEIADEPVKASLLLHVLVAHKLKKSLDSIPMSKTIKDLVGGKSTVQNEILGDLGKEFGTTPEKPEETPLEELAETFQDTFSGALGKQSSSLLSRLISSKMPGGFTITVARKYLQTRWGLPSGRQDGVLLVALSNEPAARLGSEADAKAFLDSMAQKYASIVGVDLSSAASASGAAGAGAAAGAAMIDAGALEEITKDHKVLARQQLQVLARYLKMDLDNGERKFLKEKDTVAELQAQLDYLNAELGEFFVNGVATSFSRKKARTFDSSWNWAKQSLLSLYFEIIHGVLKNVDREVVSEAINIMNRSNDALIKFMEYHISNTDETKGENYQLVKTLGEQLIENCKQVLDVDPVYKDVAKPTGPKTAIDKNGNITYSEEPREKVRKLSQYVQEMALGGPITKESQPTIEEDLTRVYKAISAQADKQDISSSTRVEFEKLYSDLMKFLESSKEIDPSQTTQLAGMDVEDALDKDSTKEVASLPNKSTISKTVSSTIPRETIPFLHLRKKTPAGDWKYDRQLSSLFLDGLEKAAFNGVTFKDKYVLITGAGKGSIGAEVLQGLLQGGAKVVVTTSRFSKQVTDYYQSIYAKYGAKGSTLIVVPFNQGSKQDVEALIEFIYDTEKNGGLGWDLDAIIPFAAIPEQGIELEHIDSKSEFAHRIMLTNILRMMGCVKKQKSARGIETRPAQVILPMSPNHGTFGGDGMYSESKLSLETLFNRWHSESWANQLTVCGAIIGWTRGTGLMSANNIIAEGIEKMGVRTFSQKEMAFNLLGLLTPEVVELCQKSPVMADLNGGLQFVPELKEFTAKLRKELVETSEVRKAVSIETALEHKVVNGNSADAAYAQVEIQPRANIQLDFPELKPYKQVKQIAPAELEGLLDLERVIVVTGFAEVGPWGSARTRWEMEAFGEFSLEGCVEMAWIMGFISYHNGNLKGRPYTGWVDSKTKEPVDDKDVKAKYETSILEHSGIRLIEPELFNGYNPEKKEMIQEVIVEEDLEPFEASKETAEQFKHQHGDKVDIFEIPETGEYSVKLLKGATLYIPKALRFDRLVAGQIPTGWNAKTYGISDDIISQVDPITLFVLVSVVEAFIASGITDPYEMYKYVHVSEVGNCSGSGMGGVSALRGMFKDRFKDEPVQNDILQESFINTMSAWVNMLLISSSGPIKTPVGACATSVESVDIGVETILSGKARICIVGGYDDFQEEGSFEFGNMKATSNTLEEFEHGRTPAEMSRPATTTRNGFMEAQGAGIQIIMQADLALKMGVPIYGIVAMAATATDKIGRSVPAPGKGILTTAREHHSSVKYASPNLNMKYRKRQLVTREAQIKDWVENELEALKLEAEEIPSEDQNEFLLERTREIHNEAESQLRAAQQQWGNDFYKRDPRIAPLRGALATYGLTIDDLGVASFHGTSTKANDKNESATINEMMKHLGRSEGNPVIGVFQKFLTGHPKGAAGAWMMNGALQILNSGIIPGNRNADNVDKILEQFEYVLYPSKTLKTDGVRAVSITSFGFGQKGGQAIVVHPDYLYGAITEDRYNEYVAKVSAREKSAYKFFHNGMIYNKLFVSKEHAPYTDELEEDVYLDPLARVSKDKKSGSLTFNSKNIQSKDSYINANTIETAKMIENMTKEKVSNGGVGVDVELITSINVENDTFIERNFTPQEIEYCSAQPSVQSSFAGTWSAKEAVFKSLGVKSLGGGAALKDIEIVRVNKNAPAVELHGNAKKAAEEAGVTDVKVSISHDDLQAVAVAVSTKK
Chain of fatty acid synthase from Saccharomyces cerevisiae (P07149 whole entry partner): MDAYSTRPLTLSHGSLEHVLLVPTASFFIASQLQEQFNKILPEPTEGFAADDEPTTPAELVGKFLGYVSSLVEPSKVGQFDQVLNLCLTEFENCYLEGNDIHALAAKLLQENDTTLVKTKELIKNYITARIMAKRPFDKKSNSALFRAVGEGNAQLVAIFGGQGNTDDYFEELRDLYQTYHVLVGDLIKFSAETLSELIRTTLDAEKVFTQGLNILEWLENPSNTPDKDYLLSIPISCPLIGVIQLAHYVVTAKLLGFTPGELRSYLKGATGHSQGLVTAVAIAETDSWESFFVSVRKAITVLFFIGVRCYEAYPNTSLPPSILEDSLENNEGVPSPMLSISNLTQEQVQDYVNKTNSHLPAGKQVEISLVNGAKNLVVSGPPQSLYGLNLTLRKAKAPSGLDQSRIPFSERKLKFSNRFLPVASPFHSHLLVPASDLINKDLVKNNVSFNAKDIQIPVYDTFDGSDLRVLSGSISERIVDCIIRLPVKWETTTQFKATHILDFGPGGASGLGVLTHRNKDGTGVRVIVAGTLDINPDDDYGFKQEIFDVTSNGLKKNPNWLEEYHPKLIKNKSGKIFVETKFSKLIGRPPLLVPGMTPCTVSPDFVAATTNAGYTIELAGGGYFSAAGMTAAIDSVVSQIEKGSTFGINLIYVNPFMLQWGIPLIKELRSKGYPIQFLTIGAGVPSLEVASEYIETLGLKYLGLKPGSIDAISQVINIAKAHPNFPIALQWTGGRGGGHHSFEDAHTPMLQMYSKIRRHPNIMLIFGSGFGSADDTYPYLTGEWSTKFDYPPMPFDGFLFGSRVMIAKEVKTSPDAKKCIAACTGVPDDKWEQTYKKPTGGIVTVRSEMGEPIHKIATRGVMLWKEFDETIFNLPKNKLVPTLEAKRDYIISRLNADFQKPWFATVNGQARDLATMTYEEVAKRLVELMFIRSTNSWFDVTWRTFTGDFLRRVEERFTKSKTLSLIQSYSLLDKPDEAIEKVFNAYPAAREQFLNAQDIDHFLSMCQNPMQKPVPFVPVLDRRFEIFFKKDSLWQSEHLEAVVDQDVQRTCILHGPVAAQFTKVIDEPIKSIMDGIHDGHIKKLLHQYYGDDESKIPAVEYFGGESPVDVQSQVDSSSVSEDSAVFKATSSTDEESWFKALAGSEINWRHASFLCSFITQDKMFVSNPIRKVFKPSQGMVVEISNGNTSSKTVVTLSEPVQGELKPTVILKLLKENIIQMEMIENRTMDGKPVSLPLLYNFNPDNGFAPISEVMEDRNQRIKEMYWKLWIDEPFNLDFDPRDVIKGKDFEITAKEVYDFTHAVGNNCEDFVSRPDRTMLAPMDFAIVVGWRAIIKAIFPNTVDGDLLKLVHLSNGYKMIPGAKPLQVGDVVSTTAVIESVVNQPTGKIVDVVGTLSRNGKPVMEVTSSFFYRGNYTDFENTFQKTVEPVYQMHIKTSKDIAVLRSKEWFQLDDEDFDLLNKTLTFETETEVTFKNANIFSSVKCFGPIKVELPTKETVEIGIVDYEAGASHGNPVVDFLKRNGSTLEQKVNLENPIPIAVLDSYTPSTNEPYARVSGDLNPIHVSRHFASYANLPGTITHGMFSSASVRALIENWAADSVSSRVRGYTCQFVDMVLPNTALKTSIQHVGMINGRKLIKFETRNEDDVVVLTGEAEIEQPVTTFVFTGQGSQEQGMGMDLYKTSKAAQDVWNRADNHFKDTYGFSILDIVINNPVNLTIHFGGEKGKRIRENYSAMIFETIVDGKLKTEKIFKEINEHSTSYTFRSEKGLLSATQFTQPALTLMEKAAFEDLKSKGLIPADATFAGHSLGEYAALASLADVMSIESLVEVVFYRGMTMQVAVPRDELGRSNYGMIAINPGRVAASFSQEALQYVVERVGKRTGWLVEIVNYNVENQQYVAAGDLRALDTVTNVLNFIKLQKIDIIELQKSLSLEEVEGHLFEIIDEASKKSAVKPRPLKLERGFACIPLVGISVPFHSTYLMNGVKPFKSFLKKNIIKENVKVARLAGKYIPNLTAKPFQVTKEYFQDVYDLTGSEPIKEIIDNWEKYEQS

CCCCCCCCC(=O)[C@H]1O[C@H]1C(N)=O [tetrahydrocerulenin]
inhibitory activity, less than cerulenin (KASII): more than 2 orders of magnitude

F133A: E. coli KAS II protein with F133A mutation
accumulation of 18:0 (E. coli strain M15/pREP4; FIG. 3): 7%

I108A
long chain fatty acid accumulation due to L111A and F133A (E. coli strain M15/pREP4): decrease the long chain fatty acid accumulation

I114A
long chain fatty acid accumulation due to L111A and F133A (E. coli strain M15/pREP4): decrease the long chain fatty acid accumulation

C/C=C/C/C=C/CCC(=O)[C@H]1O[C@H]1C(N)=O [Cerulenin, cerulenin]
inhibitory activity [1]: highest inhibitory activity

L111A: E. coli KAS II protein with L111A mutation
accumulation of 18:0 (E. coli strain M15/pREP4; FIG. 3): 13%

B1: L197: E. coli KAS II protein with L197A mutation (protein, UniProt P0AAI5 2-413, looked up, variant L197A)
3-oxoacyl-[acyl-carrier-protei …: SKRRVVVTGLGMLSPVGNTVESTWKALLAGQSGISLIDHFDTSAYATKFAGLVKDFNCEDIISRKEQRKMDAFIQYGIVAGVQAMQDSGLEITEENATRIGAAIGSGIGGLGLIEENHTSLMNGGPRKISPFFVPSTIVNMVAGHLTIMYGLRGPSISIATACTSGVHNIGHAARIIAYGDADVMVAGGAEKASTPAGVGGFGAARALSTRNDNPQAASRPWDKERDGFVLGDGAGMLVLEEYEHAKKRGAKIYAELVGFGMSSDAYHMTSPPENGAGAALAMANALRDAGIEASQIGYVNAHGTSTPAGDKAEAQAVKTIFGEAASRVLVSSTKSMTGHLLGAAGAVESIYSILALRDQAVPPTINLDNPDEGCDLDFVPHEARQVSGMEYTLCNSFGFGGTNGSLIFKKI
accumulation of 18:0 (E. coli strain M15/pREP4; FIG. 3): 4%

B2: KAS II/L111A-F133A (protein, UniProt P0AAI5 2-413, looked up, variant L111A F133A)
3-oxoacyl-[acyl-carrier-protei …: SKRRVVVTGLGMLSPVGNTVESTWKALLAGQSGISLIDHFDTSAYATKFAGLVKDFNCEDIISRKEQRKMDAFIQYGIVAGVQAMQDSGLEITEENATRIGAAIGSGIGGAGLIEENHTSLMNGGPRKISPFAVPSTIVNMVAGHLTIMYGLRGPSISIATACTSGVHNIGHAARIIAYGDADVMVAGGAEKASTPLGVGGFGAARALSTRNDNPQAASRPWDKERDGFVLGDGAGMLVLEEYEHAKKRGAKIYAELVGFGMSSDAYHMTSPPENGAGAALAMANALRDAGIEASQIGYVNAHGTSTPAGDKAEAQAVKTIFGEAASRVLVSSTKSMTGHLLGAAGAVESIYSILALRDQAVPPTINLDNPDEGCDLDFVPHEARQVSGMEYTLCNSFGFGGTNGSLIFKKI
level of 20:0 (E. coli strain M15/pREP4; FIG. 3): 2%
level of 20:1 (E. coli strain M15/pREP4; FIG. 3): 4%
